{"source": "patent US20100092465A1", "about": "“TREATMENT OF GRAFT-VERSUS-HOST DISEASE” (priority 2006, published 2010)", "key": {"huIL-27 [1]": {"target": "T1, huIL-27 (Homo sapiens, UniProt Q14213+Q8NEV9)", "T1 sequence (Q14213 21-229)": "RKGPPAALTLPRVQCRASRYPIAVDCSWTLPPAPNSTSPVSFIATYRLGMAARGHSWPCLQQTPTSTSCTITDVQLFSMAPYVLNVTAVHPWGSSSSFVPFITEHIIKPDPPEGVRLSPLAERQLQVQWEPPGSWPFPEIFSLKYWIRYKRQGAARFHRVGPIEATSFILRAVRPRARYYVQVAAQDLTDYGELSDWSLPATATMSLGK", "T1 sequence (Q8NEV9 29-243)": "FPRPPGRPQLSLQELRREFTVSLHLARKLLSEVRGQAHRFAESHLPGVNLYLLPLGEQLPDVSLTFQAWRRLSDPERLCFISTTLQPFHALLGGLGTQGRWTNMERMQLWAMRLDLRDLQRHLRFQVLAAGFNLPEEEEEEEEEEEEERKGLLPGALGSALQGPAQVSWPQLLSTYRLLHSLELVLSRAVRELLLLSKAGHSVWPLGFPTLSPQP", "experiment": "Phospho-STAT3 neutralization assay, total human PBMCs, huIL-27", "format": "cell-based", "conditions": "Total Human PBMCs; ligand huIL-27 at EC90", "from_the_text": "(§1) Whole mouse spleens were harvested from C57 B1/6 mice and washed two times with 1×PBS before being plated out at 2×10^5 cells/well in assay media (RPMI 1640 plus 10% fetal bovine serum) in 96-well, round-bottom tissue culture plates. Total human PBMC (peripheral blood mononuclear cells) were thawed from a frozen vial collected from a leukapherisis donation and washed two times with 1×PBS before being plated out at 10^6 cells/well in assay media in 96-well, round-bottom tissue culture plates. […] Following pre-incubation, treatments were added to the plates containing the cells and incubated together at 37° C. for 15 minutes.\n(§2) Following incubation, cells were washed with ice-cold wash buffer (BIO-PLEX Cell Lysis Kit, BIO-RAD Laboratories, Hercules, Calif.) and put on ice to stop the reaction according to manufacturer's instructions. […]\n(§3) Capture beads (BIO-PLEX Phospho-Stat3 Assay, BIO-RAD Laboratories) were combined with 50 μL of 1:1 diluted lysates and added to a 96-well filter plate according to manufacture's instructions (BIO-PLEX Phosphoprotein Detection Kit, BIO-RAD Laboratories). […] After the final wash, beads were resuspended in 125 μL/well of bead suspension buffer, shaken for 30 seconds, and read on an array reader (BIO-PLEX, BIO-RAD Laboratories) according to the manufacture's instructions. Data were analyzed using analytical softward (BIO-PLEX MANAGER 3.0, BIO-RAD Laboratories). […]"}, "huIL-27 [2]": {"target": "T1, huIL-27", "experiment": "Phospho-STAT3 neutralization assay, mouse spleens, huIL-27", "format": "cell-based", "conditions": "Mouse Spleens; ligand huIL-27 at EC90", "from_the_text": "as §1, §2, §3"}, "[3]": {"test_system": "acute graft-vs-host disease", "experiment": "Mouse model of acute graft-vs-host disease", "format": "in vivo", "experimental": "Efficacy of IL-27 antagonists was assayed in a mouse model of acute graft-vs-host disease (Durie et al., J. Clin. Invest. 94:1333-1338, 1994). Parental mice (C57BL/6; n=12) were euthanized, and their spleens were collected. The pooled spleens were smashed using two glass slides to dissociate splenic cells. Lysis buffer was added to the splenocyte suspension to remove red blood cells. The cells were washed in RPMI 1640 (10% FBS) medium and resuspended in an appropriate amount of PBS to make a cell concentration of 300 million cells/ml. Protein treatments were administered by intraperitoneal injection every other day beginning on day-1 and continuing until day 15. Dexamethasone (DEX) was administered by injection daily on days 0 through 6. On day 0, 75 million donor splenic lymphocytes from B6 mice (250 .micro.l per injection) were injected intravenously into recipient mice (C57BL/6×DBA/2 F1 (BDF1); n=10 per group) mice. Mice were monitored 3 times a week for changes in body weight and any signs of moribundity. Mice that lost >20% of their initial body weight were euthanized. Otherwise, mice were sacrificed 18 days after the cell transfer. Spleens were collected, and a CTL-specific lysis assay using P815 cells was performed as a quantitative measurement of acute GVHD. Furthermore, spleens were stained for T- and B-cell markers, including MHC class I markers (H2^b and H2^d) to look at donor/recipient cell ratio (acute GVHD spleen cells are mostly donor cells). Sera were collected to measure serum level of IgG1, IgG2a, and IgE by ELISA, and cytokine and chemokine levels using a commercially available kit (Luminex Corporation, Austin, Tex.)."}, "muIL-27": {"target": "T2, muIL-27 (Mus musculus, UniProt O35228+Q8K3I6)", "T2 sequence (O35228 19-228)": "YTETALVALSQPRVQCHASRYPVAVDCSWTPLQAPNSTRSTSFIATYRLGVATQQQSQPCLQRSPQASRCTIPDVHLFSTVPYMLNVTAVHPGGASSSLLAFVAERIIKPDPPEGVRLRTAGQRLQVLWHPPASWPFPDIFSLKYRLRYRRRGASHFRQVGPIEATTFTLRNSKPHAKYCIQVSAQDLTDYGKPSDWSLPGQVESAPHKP", "T2 sequence (Q8K3I6 29-234)": "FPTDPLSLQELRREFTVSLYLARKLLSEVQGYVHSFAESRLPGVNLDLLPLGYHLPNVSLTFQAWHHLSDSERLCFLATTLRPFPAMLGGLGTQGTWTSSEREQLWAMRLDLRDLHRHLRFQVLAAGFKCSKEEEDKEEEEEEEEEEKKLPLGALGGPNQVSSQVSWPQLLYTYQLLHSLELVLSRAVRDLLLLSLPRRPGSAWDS", "experiment": "Phospho-STAT3 neutralization assay, mouse spleens, muIL-27", "format": "cell-based", "conditions": "ligand muIL-27 at EC90", "from_the_text": "as §1, §2, §3"}}, "data": [{"substance": "human IL-27RA-Fc5: human IL27RA extracellular domain (amino acids 1 to 512 of SEQ ID NO:5) fused to Fc5, effector minus human gamma1 Fc; SEQ ID NO:3", "values": [{"measurement": "IC50", "setting": "huIL-27 [1]", "result": 0.95, "unit": "nM"}, {"measurement": "IC50", "setting": "huIL-27 [2]", "result": 0.32, "unit": "nM"}, {"measurement": "colon length shortening", "setting": "[3]; mouse, in vivo", "result": "did prevent colon length shortening"}, {"measurement": "splenomegaly", "setting": "[3]; mouse, in vivo", "result": "did not prevent splenomegaly"}, {"measurement": "maintenance of host spleen cells, CD4+ T cells, and Treg cells", "setting": "[3]; proteins 100 µl of 1 mg/ml IP every other day, day -1 to 15, DEX daily days 0-6, day 18", "result": "maintained host spleen cells, CD4+ T cells, and Treg cells"}, {"measurement": "Body weight loss", "setting": "[3]; versus PBS controls", "result": "not severe and was significantly less than in PBS controls"}, {"measurement": "IC50", "setting": "muIL-27", "result": 0.14, "unit": "nM"}]}]}
